Results published in patent publication US20040009233A1, “Shark meat extract” (priority 2000, published 2004).

Tested on: Angiogenesis
Test: Inhibition of angiogenesis by fatty acid samples
Type: cell-based
Source text: The phospholipid fatty acids usually include docosahexaenoic acid (DHA), arachidonic acid (AA), eicosapentaenoic acid (EPA), and others.

CCCCC/C=C\C/C=C\C/C=C\C/C=C\CCCC(=O)O [Arachidonic, arachidonic acid]
inhibition at 5 µg/mL (sample concentration 5 μg/ml): 84%

CC/C=C\C/C=C\C/C=C\C/C=C\C/C=C\C/C=C\CCC(=O)O [Docosahexaenoic (DHA), docosahexaenoic acid]
inhibition at 5 µg/mL (sample concentration 5 μg/ml): 88%

CC/C=C\C/C=C\C/C=C\C/C=C\C/C=C\CCCCCC(=O)O [Docosapentaenoic]
Inhibition of Angiogenesis (sample concentration 4 μg/ml): 71%

CC/C=C\C/C=C\C/C=C\C/C=C\C/C=C\CCCC(=O)O [Eicosapentaenoic (EPA), eicosapentaenoic acid]
inhibition at 3 µg/mL (sample concentration 3 μg/ml): 100%

CCCCCCCC/C=C\CCCCCCCCCCCC(=O)O [Erucic]
Inhibition of Angiogenesis (sample concentration 200 μg/ml): 30%

CCCCCCC=CCCCCCCCCC(=O)O [Heptadecenoic]
Inhibition of Angiogenesis (sample concentration 20 μg/ml): 83%

CCCCC/C=C\C/C=C\CCCCCCCC(=O)O [Linoleic]
Inhibition of Angiogenesis (sample concentration 5 μg/ml): 82%

CCCC/C=C\CCCCCCCC(=O)O [Myristoleic]
Inhibition of Angiogenesis (sample concentration 10 μg/ml): 58%

CCCCCCCC/C=C\CCCCCCCCCCCCCC(=O)O [Nervonic]
Inhibition of Angiogenesis (sample concentration 100 μg/ml): 0%

CCCCCCCC/C=C\CCCCCCCC(=O)O [Oleic, oleic acid]
inhibition at 100 µg/mL (read-out: Inhibition of Angiogenesis): 0%

CCCCCC/C=C\CCCCCCCC(=O)O [Palmitoleic]
Inhibition of Angiogenesis (sample concentration 5 μg/ml): 70%

CCCCCCCCCCC/C=C\CCCCC(=O)O [Petroselenic]
Inhibition of Angiogenesis (sample concentration 100 μg/ml): 58%

CC/C=C\C/C=C\C/C=C\CCCCCCCC(=O)O [α-Linolenic]
Inhibition of Angiogenesis (sample concentration 20 μg/ml): 66%
